The record followed here is patent US9340590B2 (priority 2011, dated 2016).

Holding throughout (experiment): cell-based
One assay addresses hNav1.7 (Homo sapiens, UniProt Q15858). The format is cell-based. To be noted: IonWorks Quattro, read-out: IWQ Use Nav1.7. Background: Patch clamp records ionic current or voltage across a cell membrane.
Another assay addresses hNav1.5 (Homo sapiens, UniProt Q14524). To be noted: IonWorks Quattro, read-out: IWQ Use Nav1.5.
For the next assay, the target named is hNav1.3 (Homo sapiens, UniProt Q9NY46). To be noted: IonWorks Quattro, read-out: IWQ Use Nav1.3.
[1] abbreviates: clamped to −110 mV, depolarized to −10 mV, 5 min after compound, n=2.

Structures are written as SMILES. Where two headings read alike, the source gives them in different places. Positions of bridges follow the written chain, without caps; N, C: chain ends. Non-standard residues stand in square brackets, D forms with d. Residues, ends and D or L forms follow the SMILES beside them. *: point of attachment. Phe(4-F) = N[C@@H](Cc1ccc(F)cc1)C(=O)O; Pent4ynoyl = C#CCCC(=O)*; Nva = CCC[C@H](N)C(=O)O Some results are limits rather than exact numbers.

Sequence of hNav1.3 (Q9NY46 whole entry, looked up): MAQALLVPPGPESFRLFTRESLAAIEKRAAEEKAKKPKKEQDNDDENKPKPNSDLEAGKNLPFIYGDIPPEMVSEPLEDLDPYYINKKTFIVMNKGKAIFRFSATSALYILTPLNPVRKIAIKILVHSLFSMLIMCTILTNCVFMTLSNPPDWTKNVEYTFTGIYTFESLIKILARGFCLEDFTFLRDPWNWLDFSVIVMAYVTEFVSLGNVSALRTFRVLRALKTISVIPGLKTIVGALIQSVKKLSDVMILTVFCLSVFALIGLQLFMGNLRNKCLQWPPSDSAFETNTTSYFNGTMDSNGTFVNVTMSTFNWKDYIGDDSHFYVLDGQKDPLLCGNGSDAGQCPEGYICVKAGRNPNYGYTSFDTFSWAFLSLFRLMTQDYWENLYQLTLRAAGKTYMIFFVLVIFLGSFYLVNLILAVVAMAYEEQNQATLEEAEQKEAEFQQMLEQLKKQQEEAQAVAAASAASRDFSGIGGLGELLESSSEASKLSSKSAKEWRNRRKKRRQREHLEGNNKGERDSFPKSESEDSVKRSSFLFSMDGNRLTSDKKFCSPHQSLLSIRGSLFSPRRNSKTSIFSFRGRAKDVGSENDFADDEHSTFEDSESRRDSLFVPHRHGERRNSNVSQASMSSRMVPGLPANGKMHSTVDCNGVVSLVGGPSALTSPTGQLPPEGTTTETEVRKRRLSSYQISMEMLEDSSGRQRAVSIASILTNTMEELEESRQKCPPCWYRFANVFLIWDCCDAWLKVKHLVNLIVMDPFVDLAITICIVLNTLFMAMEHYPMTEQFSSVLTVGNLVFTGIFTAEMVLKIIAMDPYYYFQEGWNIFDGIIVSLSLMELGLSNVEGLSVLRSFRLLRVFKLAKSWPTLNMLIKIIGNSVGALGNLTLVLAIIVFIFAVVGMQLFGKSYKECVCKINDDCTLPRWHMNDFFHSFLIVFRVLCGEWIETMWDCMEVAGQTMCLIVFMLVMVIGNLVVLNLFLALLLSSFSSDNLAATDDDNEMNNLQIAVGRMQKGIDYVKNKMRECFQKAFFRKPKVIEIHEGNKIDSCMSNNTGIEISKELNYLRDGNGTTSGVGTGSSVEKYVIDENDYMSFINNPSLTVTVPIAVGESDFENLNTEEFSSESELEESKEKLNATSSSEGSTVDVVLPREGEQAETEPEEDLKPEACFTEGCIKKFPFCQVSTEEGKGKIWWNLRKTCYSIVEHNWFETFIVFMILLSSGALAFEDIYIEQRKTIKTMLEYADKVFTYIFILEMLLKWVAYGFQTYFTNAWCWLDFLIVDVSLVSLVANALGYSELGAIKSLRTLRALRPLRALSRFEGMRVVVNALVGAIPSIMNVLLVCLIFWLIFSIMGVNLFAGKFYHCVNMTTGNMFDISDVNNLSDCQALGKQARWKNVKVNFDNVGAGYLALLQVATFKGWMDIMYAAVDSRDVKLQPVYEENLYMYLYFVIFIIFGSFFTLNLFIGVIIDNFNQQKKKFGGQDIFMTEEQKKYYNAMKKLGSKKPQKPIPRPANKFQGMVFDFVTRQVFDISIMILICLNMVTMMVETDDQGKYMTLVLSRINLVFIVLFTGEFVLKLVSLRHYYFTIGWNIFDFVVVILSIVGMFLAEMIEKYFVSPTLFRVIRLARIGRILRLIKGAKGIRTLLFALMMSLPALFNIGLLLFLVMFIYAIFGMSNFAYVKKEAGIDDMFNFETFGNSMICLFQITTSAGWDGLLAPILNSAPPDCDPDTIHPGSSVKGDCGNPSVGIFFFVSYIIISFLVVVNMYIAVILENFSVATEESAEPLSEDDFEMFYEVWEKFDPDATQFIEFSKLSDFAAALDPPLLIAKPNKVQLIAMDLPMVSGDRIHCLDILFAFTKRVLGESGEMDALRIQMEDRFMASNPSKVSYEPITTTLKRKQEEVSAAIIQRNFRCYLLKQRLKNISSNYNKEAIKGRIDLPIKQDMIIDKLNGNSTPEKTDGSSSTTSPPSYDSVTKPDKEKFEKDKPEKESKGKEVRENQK
Sequence of hNav1.7 (Q15858 whole entry, looked up): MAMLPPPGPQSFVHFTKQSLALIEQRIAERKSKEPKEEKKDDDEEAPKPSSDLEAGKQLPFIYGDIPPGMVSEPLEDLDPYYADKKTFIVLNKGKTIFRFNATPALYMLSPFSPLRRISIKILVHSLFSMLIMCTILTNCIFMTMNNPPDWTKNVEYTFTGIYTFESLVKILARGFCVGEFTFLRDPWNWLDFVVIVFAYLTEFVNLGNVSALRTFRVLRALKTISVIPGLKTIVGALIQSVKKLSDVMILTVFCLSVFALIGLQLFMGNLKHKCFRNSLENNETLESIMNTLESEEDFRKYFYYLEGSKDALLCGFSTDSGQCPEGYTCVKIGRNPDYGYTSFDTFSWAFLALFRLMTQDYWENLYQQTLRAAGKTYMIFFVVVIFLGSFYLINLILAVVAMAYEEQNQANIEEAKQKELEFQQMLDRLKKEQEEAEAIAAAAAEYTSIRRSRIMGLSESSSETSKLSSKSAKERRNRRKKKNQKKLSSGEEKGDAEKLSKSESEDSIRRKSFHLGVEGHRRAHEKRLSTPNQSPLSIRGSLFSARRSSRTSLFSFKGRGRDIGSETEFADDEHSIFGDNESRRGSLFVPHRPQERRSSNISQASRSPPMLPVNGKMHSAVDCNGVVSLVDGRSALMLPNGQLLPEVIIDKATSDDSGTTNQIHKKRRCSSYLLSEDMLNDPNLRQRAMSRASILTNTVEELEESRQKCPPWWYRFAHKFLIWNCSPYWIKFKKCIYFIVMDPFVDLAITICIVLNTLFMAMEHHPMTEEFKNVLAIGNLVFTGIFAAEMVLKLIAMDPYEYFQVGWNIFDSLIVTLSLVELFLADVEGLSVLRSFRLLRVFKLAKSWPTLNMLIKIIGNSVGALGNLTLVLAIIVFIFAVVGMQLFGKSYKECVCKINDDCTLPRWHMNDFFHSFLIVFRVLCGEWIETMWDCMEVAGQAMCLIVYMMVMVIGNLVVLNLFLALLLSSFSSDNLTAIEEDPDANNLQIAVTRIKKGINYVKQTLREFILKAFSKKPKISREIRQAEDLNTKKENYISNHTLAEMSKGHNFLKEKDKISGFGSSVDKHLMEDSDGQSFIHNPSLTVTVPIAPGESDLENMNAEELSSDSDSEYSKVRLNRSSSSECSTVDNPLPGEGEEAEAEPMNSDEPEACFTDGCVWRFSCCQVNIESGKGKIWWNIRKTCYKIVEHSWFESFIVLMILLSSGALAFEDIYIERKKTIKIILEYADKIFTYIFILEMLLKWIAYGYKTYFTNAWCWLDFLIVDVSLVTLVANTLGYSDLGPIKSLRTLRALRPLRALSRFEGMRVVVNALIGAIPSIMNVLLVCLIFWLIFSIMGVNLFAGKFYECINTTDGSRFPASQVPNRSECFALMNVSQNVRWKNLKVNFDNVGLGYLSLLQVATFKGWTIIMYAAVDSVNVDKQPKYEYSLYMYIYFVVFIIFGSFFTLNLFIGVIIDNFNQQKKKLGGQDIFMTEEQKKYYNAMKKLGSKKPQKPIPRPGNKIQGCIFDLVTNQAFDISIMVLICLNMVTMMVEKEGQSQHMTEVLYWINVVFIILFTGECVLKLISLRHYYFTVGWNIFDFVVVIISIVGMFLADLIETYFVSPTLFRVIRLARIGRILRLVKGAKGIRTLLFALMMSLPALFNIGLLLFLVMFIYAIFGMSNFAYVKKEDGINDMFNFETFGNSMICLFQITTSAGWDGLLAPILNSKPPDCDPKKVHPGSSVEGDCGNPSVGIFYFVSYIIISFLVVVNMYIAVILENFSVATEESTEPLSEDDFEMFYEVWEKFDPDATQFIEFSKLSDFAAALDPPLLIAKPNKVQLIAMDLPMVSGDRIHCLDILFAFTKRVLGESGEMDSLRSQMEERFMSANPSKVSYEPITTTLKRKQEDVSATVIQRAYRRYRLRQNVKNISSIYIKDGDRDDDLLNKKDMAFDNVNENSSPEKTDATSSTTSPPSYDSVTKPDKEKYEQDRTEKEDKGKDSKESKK

As to `CC[C@H](C)[C@@H]1NC(=O)[C@@H]2CSSC[C@@H]3NC(=O)[C@H](C(C)C)NC(=O)[C@H](CC(C)C)NC(=O)[C@H](CC(N)=O)NC(=O)[C@@H]4CCCN4C(=O)[C@H](CCCNC(=N)N)NC(=O)[C@H](CSSC[C@H](NC(=O)[C@@H](N)CC(=O)O)C(=O)N[C@@H](CC(C)C)C(=O)NCC(=O)N[C@@H](C)C(=O)N[C@@H](CCSC)C(=O)N[C@@H](CCCNC(=N)N)C(=O)N[C@@H](CCCCN)C(=O)N2)NC(=O)[C@H](CSSC[C@@H](C(=O)N[C@@H](CCCCN)C(=O)N[C@@H](Cc2ccc(O)cc2)C(=O)N[C@H](C(=O)N[C@@H](Cc2ccccc2)C(N)=O)C(C)C)NC(=O)[C@H](Cc2c[nH]c4ccccc24)NC(=O)[C@H](CCCCN)NC(=O)[C@H](Cc2c[nH]cn2)NC(=O)[C@H]([C@@H](C)O)NC(=O)[C@H](CCCNC(=N)N)NC(=O)[C@H](CO)NC3=O)NC(=O)[C@H](CCCCN)NC(=O)[C@H](CC(=O)O)NC(=O)[C@H](Cc2c[nH]c3ccccc23)NC(=O)[C@H](CC(=O)O)NC(=O)[C@@H]2CCCN2C1=O` [compound 428] (H-DCLGAMRKCIPDWDKCCRPNLVCSRTHKWCKYVF-NH2; disulfide 2-17, 9-23, 16-30), the IC50 was 670 nM on hNav1.7 (use-dependent block, hNav1.7); more than 5000 nM on hNav1.5 (use-dependent block, hNav1.5); 1100 nM on hNav1.3 (use-dependent block, hNav1.3).
Regarding `CC[C@H](C)[C@@H]1NC(=O)[C@@H]2CSSC[C@@H]3NC(=O)[C@H](C(C)C)NC(=O)[C@H](CC(C)C)NC(=O)[C@H](CC(N)=O)NC(=O)[C@@H]4CCCN4C(=O)[C@H](CCCNC(=N)N)NC(=O)[C@H](CSSC[C@H](NC(=O)[C@@H](N)CO)C(=O)N[C@@H](CC(C)C)C(=O)NCC(=O)N[C@@H](Cc4ccccc4)C(=O)N[C@@H](CCSC)C(=O)N[C@@H](CCCNC(=N)N)C(=O)N[C@@H](CCCCN)C(=O)N2)NC(=O)[C@H](CSSC[C@@H](C(=O)N[C@@H](CCCCN)C(=O)N[C@@H](Cc2ccc(O)cc2)C(=O)N[C@H](C(=O)N[C@@H](Cc2ccccc2)C(N)=O)C(C)C)NC(=O)[C@H](Cc2c[nH]c4ccccc24)NC(=O)[C@H](CCCCN)NC(=O)[C@H](Cc2c[nH]cn2)NC(=O)[C@H]([C@@H](C)O)NC(=O)[C@H](CCCNC(=N)N)NC(=O)[C@H](CO)NC3=O)NC(=O)[C@H](CCCCN)NC(=O)[C@H](CC(=O)O)NC(=O)[C@H](CC(N)=O)NC(=O)[C@H](CC(=O)O)NC(=O)[C@@H]2CCCN2C1=O` [SEQ ID NO: 191] (H-SCLGFMRKCIPDNDKCCRPNLVCSRTHKWCKYVF-NH2; disulfide 2-17, 9-23, 16-30), the figures for the IC50 on hNav1.7 (setting [1]), at hNav1.5 (setting [1]) and on hNav1.3 (setting [1]) were 70 nM, 9400 nM and 50 nM, respectively.
Take `CC[C@H](C)[C@@H]1NC(=O)[C@@H]2CSSC[C@@H]3NC(=O)[C@H](C(C)C)NC(=O)[C@H](CC(C)C)NC(=O)[C@H](CC(N)=O)NC(=O)[C@@H]4CCCN4C(=O)[C@H](CCCNC(=N)N)NC(=O)[C@H](CSSC[C@H](NC(=O)[C@@H](N)CC(=O)O)C(=O)N[C@@H](CC(C)C)C(=O)NCC(=O)N[C@@H](C)C(=O)N[C@@H](Cc4ccccc4)C(=O)N[C@@H](CCCNC(=N)N)C(=O)N[C@@H](CCCCN)C(=O)N2)NC(=O)[C@H](CSSC[C@@H](C(=O)N[C@@H](CCCCN)C(=O)N[C@@H](Cc2ccc(O)cc2)C(=O)N[C@H](C(=O)N[C@@H](Cc2ccccc2)C(=O)O)C(C)C)NC(=O)[C@H](Cc2c[nH]c4ccccc24)NC(=O)CNC(=O)[C@H](Cc2c[nH]cn2)NC(=O)[C@H]([C@@H](C)O)NC(=O)[C@H](CCCNC(=N)N)NC(=O)[C@H](CO)NC3=O)NC(=O)[C@H](CCCCN)NC(=O)[C@H](CC(=O)O)NC(=O)[C@H](CC(N)=O)NC(=O)[C@H](CC(=O)O)NC(=O)[C@@H]2CCCN2C1=O` [compound 827] (H-DCLGAFRKCIPDNDKCCRPNLVCSRTHGWCKYVF-OH; disulfide 2-17, 9-23, 16-30): the IC50 is more than 5000 nM on hNav1.7 (use-dependent block, hNav1.7); more than 5000 nM at hNav1.5 (use-dependent block, hNav1.5); more than 5000 nM on hNav1.3 (use-dependent block, hNav1.3).
For `CC[C@H](C)[C@@H]1NC(=O)[C@@H]2CSSC[C@@H]3NC(=O)[C@H](C(C)C)NC(=O)[C@H](CC(C)C)NC(=O)[C@H](CC(N)=O)NC(=O)[C@@H]4CCCN4C(=O)[C@H](CCCNC(=N)N)NC(=O)[C@H](CSSC[C@H](NC(=O)[C@@H](N)CC(=O)O)C(=O)N[C@@H](CC(C)C)C(=O)NCC(=O)N[C@@H](Cc4ccc(F)cc4)C(=O)N[C@@H](Cc4ccccc4)C(=O)N[C@@H](CCCNC(=N)N)C(=O)N[C@@H](CCCCN)C(=O)N2)NC(=O)[C@H](CSSC[C@@H](C(=O)N[C@@H](CCCCN)C(=O)N[C@@H](Cc2ccc(O)cc2)C(=O)N[C@H](C(=O)N[C@@H](Cc2ccccc2)C(N)=O)C(C)C)NC(=O)[C@H](Cc2c[nH]c4ccccc24)NC(=O)[C@H](CCCCN)NC(=O)[C@H](Cc2c[nH]cn2)NC(=O)[C@H]([C@@H](C)O)NC(=O)[C@H](CCCNC(=N)N)NC(=O)[C@H](CO)NC3=O)NC(=O)[C@H](CCCCN)NC(=O)[C@H](CC(=O)O)NC(=O)[C@H](CC(N)=O)NC(=O)[C@H](CC(=O)O)NC(=O)[C@@H]2CCCN2C1=O` [compound 624] (H-DCLG[Phe(4-F)]FRKCIPDNDKCCRPNLVCSRTHKWCKYVF-NH2; disulfide 2-17, 9-23, 16-30), the IC50 turned out to be 60 nM at hNav1.7 (use-dependent protocol, hNav1.7); 11700 nM at hNav1.5 (use-dependent protocol, hNav1.5); 20 nM at hNav1.3 (use-dependent protocol, hNav1.3).
In the case of `CC[C@H](C)[C@@H]1NC(=O)[C@@H]2CSSC[C@@H]3NC(=O)[C@H](C(C)C)NC(=O)[C@H](CC(C)C)NC(=O)[C@H](CC(N)=O)NC(=O)[C@@H]4CCCN4C(=O)[C@H](CCCNC(=N)N)NC(=O)[C@H](CSSC[C@H](NC(=O)[C@@H](N)CC(=O)O)C(=O)N[C@@H](CC(C)C)C(=O)NCC(=O)N[C@@H](Cc4ccccc4)C(=O)N[C@@H](CCSC)C(=O)N[C@@H](CCCNC(=N)N)C(=O)N[C@@H](CCCCN)C(=O)N2)NC(=O)[C@H](CSSC[C@@H](C(=O)N[C@@H](CCCCN)C(=O)N[C@@H](Cc2ccc(O)cc2)C(=O)N[C@@H](CC(N)=O)C(=O)N[C@@H](Cc2ccccc2)C(N)=O)NC(=O)[C@H](Cc2c[nH]c4ccccc24)NC(=O)[C@H](CCCCN)NC(=O)[C@H](Cc2c[nH]cn2)NC(=O)[C@H]([C@@H](C)O)NC(=O)[C@H](CCCNC(=N)N)NC(=O)[C@H](CO)NC3=O)NC(=O)[C@H](CCCCN)NC(=O)[C@H](CC(=O)O)NC(=O)[C@H](CC(N)=O)NC(=O)[C@H](CC(=O)O)NC(=O)[C@@H]2CCCN2C1=O` [compound 394] (H-DCLGFMRKCIPDNDKCCRPNLVCSRTHKWCKYNF-NH2; disulfide 2-17, 9-23, 16-30), the IC50 on hNav1.7 (Table 26, use, […]) worked out at 360 nM; on hNav1.5 (Table 26, use, […]), 7940 nM; on hNav1.3 (Table 26, use, […]), 70 nM.
With `C#CCCC(=O)NCCCC[C@@H]1NC(=O)[C@H](CC(=O)O)NC(=O)[C@@H]2CCCN2C(=O)[C@H]([C@@H](C)CC)NC(=O)[C@@H]2CSSC[C@@H]3NC(=O)[C@H](C(C)C)NC(=O)[C@H](CC(C)C)NC(=O)[C@H](CC(N)=O)NC(=O)[C@@H]4CCCN4C(=O)[C@H](CCCNC(=N)N)NC(=O)[C@H](CSSC[C@H](NC(=O)[C@@H](N)CC(=O)O)C(=O)N[C@@H](CC(C)C)C(=O)NCC(=O)N[C@@H](CCC)C(=O)N[C@@H](CC(C)C)C(=O)N[C@@H](CCCNC(=N)N)C(=O)N[C@@H](CCCCN)C(=O)N2)NC(=O)[C@H](CSSC[C@@H](C(=O)N[C@@H](CCCCN)C(=O)N[C@@H](Cc2ccc(O)cc2)C(=O)N[C@H](C(=O)N[C@@H](Cc2ccccc2)C(N)=O)C(C)C)NC(=O)[C@H](Cc2c[nH]c4ccccc24)NC(=O)[C@H](CCCNC(=N)N)NC(=O)[C@H](Cc2c[nH]cn2)NC(=O)[C@H]([C@@H](C)O)NC(=O)[C@H](CCCNC(=N)N)NC(=O)[C@H](CO)NC3=O)NC(=O)[C@H](CCCCN)NC(=O)[C@H](CC(=O)O)NC1=O` [compound 805] (H-DCLG[Nva]LRKCIPDK(Pent4ynoyl)DKCCRPNLVCSRTHRWCKYVF-NH2; disulfide 2-17, 9-23, 16-30), the IC50 was found to be 310 nM on hNav1.7 (use-dependent block, hNav1.7); 37500 nM at hNav1.5 (use-dependent block, hNav1.5); 270 nM at hNav1.3 (use-dependent block, hNav1.3).
Taken in the same sequence, the figures for `CC[C@H](C)[C@@H]1NC(=O)[C@@H]2CSSC[C@@H]3NC(=O)[C@H](C(C)C)NC(=O)[C@H](CC(C)C)NC(=O)[C@H](CC(N)=O)NC(=O)[C@@H]4CCCN4C(=O)[C@H](CCCNC(=N)N)NC(=O)[C@H](CSSC[C@H](NC(=O)[C@@H](N)CC(=O)O)C(=O)N[C@@H](CC(C)C)C(=O)NCC(=O)N[C@@H](C)C(=O)N[C@@H](CC(C)C)C(=O)N[C@@H](CCCNC(=N)N)C(=O)N[C@@H](CCCCN)C(=O)N2)NC(=O)[C@H](CSSC[C@@H](C(=O)N[C@@H](CCCCN)C(=O)N[C@@H](Cc2ccc(O)cc2)C(=O)N[C@H](C(=O)N[C@@H](Cc2ccccc2)C(=O)O)C(C)C)NC(=O)[C@H](Cc2c[nH]c4ccccc24)NC(=O)[C@H](CCCNC(=N)N)NC(=O)[C@H](Cc2c[nH]cn2)NC(=O)[C@H]([C@@H](C)O)NC(=O)[C@H](CCCNC(=N)N)NC(=O)[C@H](CO)NC3=O)NC(=O)[C@H](CCCCN)NC(=O)[C@H](CC(=O)O)NC(=O)[C@H](CCC(N)=O)NC(=O)[C@H](CC(=O)O)NC(=O)[C@@H]2CCCN2C1=O` [compound 869] (H-DCLGALRKCIPDQDKCCRPNLVCSRTHRWCKYVF-OH; disulfide 2-17, 9-23, 16-30) were more than 5000 nM, more than 5000 nM and more than 5000 nM.
